The values that follow come from patent US11999747B2, “Furoquinolinediones as inhibitors of TDP2” (THE UNITED STATES OF AMERICA, AS REPRESENTED BY THE …, priority 2015, dated 2024).

For one test, the target named is T1, recombinant human TDP2 (Homo sapiens, UniProt O95551).
T1 sequence (O95551 1-362): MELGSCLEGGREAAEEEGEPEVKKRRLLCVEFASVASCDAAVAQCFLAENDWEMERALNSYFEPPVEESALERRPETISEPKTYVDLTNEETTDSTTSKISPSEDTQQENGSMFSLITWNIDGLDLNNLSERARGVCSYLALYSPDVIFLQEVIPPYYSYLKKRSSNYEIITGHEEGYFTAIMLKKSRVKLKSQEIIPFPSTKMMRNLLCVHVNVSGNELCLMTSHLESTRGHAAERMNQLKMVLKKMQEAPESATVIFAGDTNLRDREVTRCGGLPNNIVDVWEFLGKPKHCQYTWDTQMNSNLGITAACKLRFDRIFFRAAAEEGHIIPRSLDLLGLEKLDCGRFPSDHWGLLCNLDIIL
Kind of test: Recombinant Tdp2 assay (gel-based, 18-mer ssDNA substrate). It counts as biochemical. The conditions noted are these: recombinant human TDP2, 25 pM, 15 min, room temperature; read-out: REC TDP2. As to the method:
TDP2 reactions were carried out as described previously (Example 52) with the following modifications. The 18-mer single-stranded oligonucleotide DNA substrate (α^32P-cordycepin-3′-labeled) was incubated at 1 nM with 25 pM recombinant human TDP2 in the absence or presence of inhibitor for 15 min at room temperature in a buffer containing 50 mM Tris-HCl, pH 7.5, 80 mM KCl, 5 mM MgCl2, 0.1 mM EDTA, 1 mM DTT, 40 μg/mL BSA, and 0.01% Tween 20. Reactions were terminated and treated similarly to WCE and recombinant TDP1 reactions (see Examples 52 and 53).
(§1) All compounds were prepared by the methods shown in Examples 1 to 50. Routine changes in starting materials and reaction conditions, readily apparent to those of skill in the art, were used to make the particular compounds disclosed in Table 1. […] A standard Tdp2 inhibition assay, such as the assay of Example 53, is used to determine the IC50's for the compounds. LC methods are given in the General Methods section.

The next test concerns the target T2, human TDP2 (hTDP2) (Homo sapiens, UniProt O95551).
T2 construct: expressed in transfected cells; host or cells: DT40 (chicken) TDP1-/- knockout cells complemented with human TDP2; whole cell extract
T2 sequence (O95551 1-362): T1 sequence (O95551 1-362)
Kind of test: Whole cell extract Tdp2 assay (DT40 TDP1-/- cells complemented with human TDP2). It counts as biochemical. The settings on record: whole cell extract 4 μg/mL of DT40 cells expressing hTDP2, 15 min, room temperature; read-out: WCE hTDP2. As to the method:
DT40 knockout cells (1×10^7) for Tdp1 (TDP1−/−) complemented with human TDP2 (hTDP2) were collected, washed, and centrifuged. Cell pellets were then lysed and stored similarly to hTDP1 extracts (see above). The 18-mer single-stranded oligonucleotide was incubated at 1 nM with 4 μg/mL of whole cell extracts in the absence or presence of inhibitor for 15 min at room temperature in the WCE buffer containing 50 mM Tris HCl, pH 7.5, 80 mM KCl, 5 mM MgCl2, 2 mM EDTA, 1 mM DTT, 40 μg/mL BSA, and 0.01% Tween-20. Reactions were terminated by the addition of 1 volume of gel loading buffer [99.5% (v/v) formamide, 5 mM EDTA, 0.01% (w/v) xylene cyanol, and 0.01% (w/v) bromophenol blue]. Samples were then treated and run similarly to the hTDP1 whole cell extract (Example 51).
as §1

As for `Cc1oc2c(c1C(=O)Oc1ccc(N)cc1)C(=O)c1ncccc1C2=O` [Compound 70], at recombinant human TDP2, the IC50 lay within 1 to 12 µM.

On to `Cc1oc2c(c1C(=O)Nc1ccccc1O)C(=O)c1ncccc1C2=O` [Compound 18], for which, on recombinant human TDP2, the IC50 was over 111 µM.

As for `Cc1oc2c(c1C(=O)Oc1cccnc1)C(=O)c1ncccc1C2=O` [Compound 28], the IC50 on human TDP2 (hTDP2) and on recombinant human TDP2 was 1 to 12 µM throughout.

Regarding `Cc1oc2c(c1C(=O)O)C(=O)c1ncccc1C2=O` [Compound 7, 2-methyl-4,9-dioxo-4,9-dihydrofuro[2,3-g]quinoline-3-carboxylic acid], the IC50 at human TDP2 (hTDP2) and at recombinant human TDP2 was 37 to 111 µM in each case.

In the case of `Cc1oc2c(c1C(=O)Oc1ccccc1OCCCN1CCOCC1)C(=O)c1ncccc1C2=O` [Compound 60], the IC50 at human TDP2 (hTDP2) lay in the range of 1 to 12 µM; at recombinant human TDP2, 37 to 111 µM.

Regarding `Cc1oc2c(c1C(=O)OCCc1cn(CCC(=O)O)nn1)C(=O)c1ncccc1C2=O` [Compound 42], the IC50 on human TDP2 (hTDP2) and at recombinant human TDP2 was 12 to 37 µM throughout.

For the compound `Cc1oc2c(c1C(=O)Oc1cccc(O)c1)C(=O)c1ncccc1C2=O` [Compound 12], the IC50 is 1 to 12 µM on human TDP2 (hTDP2) and 12 to 37 µM at recombinant human TDP2.

Take `Cc1oc2c(c1C(=O)Oc1cccc(-c3cn(CCCO)nn3)c1)C(=O)c1ncccc1C2=O` [Compound 34]: the IC50 at human TDP2 (hTDP2) and on recombinant human TDP2 was 1 to 12 µM throughout.

For `CCOC(=O)c1c(C(C)C)oc2c1C(=O)c1ncccc1C2=O` [Compound 64], the IC50 at human TDP2 (hTDP2) is at most 1 µM; at recombinant human TDP2 it was 12 to 37 µM.

Take `CCOC(=O)c1c(CC)oc2c1C(=O)c1ncccc1C2=O` [Compound 65]: at recombinant human TDP2, the IC50 was in the range of 37 to 111 µM.

With `C=CC(=O)Nc1cccc(OC(=O)c2c(C)oc3c2C(=O)c2ncccc2C3=O)c1` [Compound 67], at recombinant human TDP2, the IC50 fell in the range of 12 to 37 µM.

`CCOC(=O)c1c(C)oc2c1C(=O)c1cccnc1C2=O` [Compound 1, Ethyl 2-methyl-4,9-dioxo-4,9-dihydrofuro[3,2-g]quinoline-3-carboxylate]: the IC50 on human TDP2 (hTDP2) and at recombinant human TDP2 was 37 to 111 µM in each case.

In the case of `Cc1oc2c(c1C(=O)Oc1cccc(Cl)c1)C(=O)c1ncccc1C2=O` [Compound 23], the IC50 was 1 to 12 µM on human TDP2 (hTDP2) and 12 to 37 µM on recombinant human TDP2.

Take `CCNC(=O)c1c(C)oc2c1C(=O)c1ncccc1C2=O` [Compound 20]: at recombinant human TDP2, the IC50 is over 111 µM.

As for `C#Cc1cccc(OC(=O)c2c(C)oc3c2C(=O)c2ncccc2C3=O)c1` [Compound 32], the IC50 at human TDP2 (hTDP2) was in the range of 12 to 37 µM; at recombinant human TDP2 it was 37 to 111 µM.

Take `CCOC(=O)c1noc2c1C(=O)c1ncccc1C2=O` [Compound 73]: at recombinant human TDP2, the IC50 was at most 1 µM.

Turning to `O=C(Oc1ccc(OCCCN2CCOCC2)cc1)c1coc2c1C(=O)c1ncccc1C2=O` [Compound 59], the figures for the IC50 at human TDP2 (hTDP2) and on recombinant human TDP2 were 1 to 12 µM and 37 to 111 µM, respectively.

As to `Cc1oc2c(c1C(=O)Nc1cccc(Cl)c1)C(=O)c1ncccc1C2=O` [Compound 17], the IC50 on recombinant human TDP2 was over 111 µM.

As for `CCOC(=O)c1c(CN2CCN(C(C)=O)CC2)oc2c1C(=O)c1ncccc1C2=O` [Compound 71], the IC50 on recombinant human TDP2 fell in the range of 12 to 37 µM.

For `CCOC(=O)c1c2c(n(C)c1C)C(=O)c1ncccc1C2=O` [Compound 5], the IC50 at recombinant human TDP2 was over 111 µM.

For the compound `COC(=O)c1c(C)oc2c1C(=O)c1ncccc1C2=O` [Compound 41], the IC50 at human TDP2 (hTDP2) is 1 to 12 µM; on recombinant human TDP2, 12 to 37 µM.

Take `CC(C)(C)OC(=O)Nc1ccc(OC(=O)c2coc3c2C(=O)c2ncccc2C3=O)cc1` [Compound 69]: the IC50 at recombinant human TDP2 was in the range of 12 to 37 µM.

In the case of `Cc1oc2c(c1C(=O)Oc1ccccc1O)C(=O)c1ncccc1C2=O` [Compound 13], the IC50 on human TDP2 (hTDP2) fell in the range of 1 to 12 µM; at recombinant human TDP2, 12 to 37 µM.

With `Cc1oc2c(c1C(=O)OCCO)C(=O)c1ncccc1C2=O` [Compound 10, 2-hydroxyethyl-2-methyl-4,9-dioxo-4,9-dihydrofuro[2,3-g]quinoline-3-carboxylate], the IC50 on human TDP2 (hTDP2) fell in the range of 1 to 12 µM; at recombinant human TDP2 it was 12 to 37 µM.

Take `Cc1oc2c(c1C(=O)Oc1ccccc1Cl)C(=O)c1ncccc1C2=O` [Compound 24]: the results for the IC50 on human TDP2 (hTDP2) and at recombinant human TDP2 were 12 to 37 µM and 1 to 12 µM, respectively.

With `CCOC(=O)c1c(-c2ccccc2)oc2c1C(=O)c1cccnc1C2=O` [Compound 29, Ethyl 4,9-dioxo-2-phenyl-4,9-dihydrofuro[3,2-g]quinoline-3-carboxylate], the IC50 was 12 to 37 µM on human TDP2 (hTDP2) and 37 to 111 µM at recombinant human TDP2.

For `Cc1oc2c(c1C(=O)Oc1cccc(C#N)c1)C(=O)c1ncccc1C2=O` [Compound 26], the IC50 at human TDP2 (hTDP2) and on recombinant human TDP2 was 1 to 12 µM in each case.

For `COC(=O)c1sccc1OC(=O)c1c(C)oc2c1C(=O)c1ncccc1C2=O` [Compound 62], the IC50 at human TDP2 (hTDP2) was in the range of 1 to 12 µM; on recombinant human TDP2, 12 to 37 µM.

Turning to `Cc1oc2c(c1C(=O)Oc1ccc(Cl)cc1)C(=O)c1ncccc1C2=O` [Compound 27], the IC50 on human TDP2 (hTDP2) and on recombinant human TDP2 was 1 to 12 µM throughout.

Regarding `CCOC(=O)c1c(C(Br)Br)oc2c1C(=O)c1ncccc1C2=O` [Compound 74], on recombinant human TDP2, the IC50 is 12 to 37 µM.

With `COP(=O)(CCOC(=O)c1c(C)oc2c1C(=O)c1ncccc1C2=O)OC` [Compound 22], the IC50 on human TDP2 (hTDP2) lay in the range of 12 to 37 µM; at recombinant human TDP2, 1 to 12 µM.

For `Cc1oc2c(c1C(=O)Oc1ccc3ccccc3c1)C(=O)c1ncccc1C2=O` [Compound 25], the IC50 on recombinant human TDP2 was over 111 µM.

As for `CCOC(=O)c1c(-c2ccccc2)oc2c1C(=O)c1ncccc1C2=O` [Compound 30, Ethyl 4,9-dioxo-2-phenyl-4,9-dihydrofuro[2,3-g]quinoline-3-carboxylate], the IC50 at human TDP2 (hTDP2) and at recombinant human TDP2 was 12 to 37 µM throughout.

As to `CC(=O)c1c(C)oc2c1C(=O)c1ncccc1C2=O` [Compound 9, 3-acetyl-2-methylfuro[2,3-g]quinoline-4,9-dione], the IC50 at human TDP2 (hTDP2) and at recombinant human TDP2 was 37 to 111 µM throughout.

Turning to `Cc1oc2c(c1C(=O)Oc1ccc(S(C)(=O)=O)cc1)C(=O)c1ncccc1C2=O` [Compound 44], the IC50 on human TDP2 (hTDP2) and at recombinant human TDP2 was 12 to 37 µM each time.

Turning to `Cc1oc2c(c1C(=O)OCC(O)CO)C(=O)c1ncccc1C2=O` (stereo not shown) [Compound 15], the IC50 on human TDP2 (hTDP2) was in the range of 1 to 12 µM; on recombinant human TDP2, 12 to 37 µM.

With `Cc1oc2c(c1C(=O)Oc1ccccc1)C(=O)c1ncccc1C2=O` [Compound 14], the IC50 at human TDP2 (hTDP2) was 1 to 12 µM; at recombinant human TDP2, 12 to 37 µM.

As for `Cc1oc2c(c1C(=O)OCCc1ccccc1)C(=O)c1ncccc1C2=O` [Compound 40], the results for the IC50 at human TDP2 (hTDP2) and at recombinant human TDP2 were 12 to 37 µM and 37 to 111 µM, respectively.

With `CCOC(=O)c1c(CC)oc2c1C(=O)c1ncccc1C2=O` [Compound 66], the IC50 on recombinant human TDP2 fell in the range of 12 to 37 µM.

As for `Cc1oc2c(c1C(=O)OCCCCO)C(=O)c1ncccc1C2=O` [Compound 35], the IC50 at human TDP2 (hTDP2) lay within 1 to 12 µM; on recombinant human TDP2, 12 to 37 µM.

`COc1ccc(NC(=O)c2c(C)oc3c2C(=O)c2ncccc2C3=O)cc1` [Compound 19]: the IC50 at recombinant human TDP2 is over 111 µM.

In the case of `CC(=O)c1c(C)oc2c1C(=O)c1cccnc1C2=O` [Compound 8, 3-acetyl-2-methylfuro[3,2-g]quinoline-4,9-dione], on recombinant human TDP2, the IC50 was over 111 µM.

`CCOC(=O)c1c(CN2CCOCC2)oc2c1C(=O)c1ncccc1C2=O` [Compound 72]: the IC50 on recombinant human TDP2 is 1 to 12 µM.

Regarding `Cc1oc2c(c1C(=O)Nc1ccccc1)C(=O)c1ncccc1C2=O` [Compound 16], the IC50 at recombinant human TDP2 is over 111 µM.

`CCOC(=O)c1c(C)oc2c1C(=O)c1ccccc1C2=O` [Compound 3, Ethyl 2-methyl-4,9-dioxo-4,9-dihydronaphtho[2,3-b]furan-3-carboxylate]: at recombinant human TDP2, the IC50 fell in the range of 37 to 111 µM.

Regarding `Cc1oc2c(c1C(=O)Nc1cccc(O)c1)C(=O)c1ncccc1C2=O` [Compound 21], the IC50 at recombinant human TDP2 is over 111 µM.

As to `CNC1=C(Cl)C(=O)c2ncccc2C1=O` [Compound 6], on recombinant human TDP2, the IC50 was over 111 µM.

Regarding `CCOC(=O)C1=C(C)C(C(=O)OCC)C2=C1C(=O)c1ncccc1C2=O` (stereo not shown) [Compound 4], the IC50 at recombinant human TDP2 is over 111 µM.

`C=CC(=O)Nc1ccc(OC(=O)c2c(C)oc3c2C(=O)c2ncccc2C3=O)cc1` [Compound 68]: the IC50 on recombinant human TDP2 was 12 to 37 µM.
